In the NIST ThermoML archive (doi:10.1021/je7001539):
± gives the expanded uncertainty stated by the source.

Conditions: Liquid

Row | Structure (SMILES) | vapor or sublimation pressure (243.15 K) [kPa] | vapor or sublimation pressure (253.15 K) [kPa] | vapor or sublimation pressure (263.15 K) [kPa] | vapor or sublimation pressure (272.15 K) [kPa] | vapor or sublimation pressure (283.15 K) [kPa] | vapor or sublimation pressure (293.15 K) [kPa] | vapor or sublimation pressure (303.15 K) [kPa] | vapor or sublimation pressure (313.15 K) [kPa] | vapor or sublimation pressure (323.15 K) [kPa] | vapor or sublimation pressure (333.15 K) [kPa]
1 | CC(C)C [2-methylpropane] | 46.2 ± 3.2 | 72 ± 3.5 | 107.9 ± 3.9 | 150.9 ± 4.6 | 220.1 ± 5.9 | 301.8 ± 7.6 | 404.3 ± 10 | 530.8 ± 13 | 684.3 ± 17 | 868.3 ± 22
2 | FC(F)C(F)(F)F [pentafluoroethane] | 228.5 ± 6.1 | 337.9 ± 8.5 | 483.1 ± 12 | 650.1 ± 16 | 908.8 ± 23 | 1204.5 ± 30 | 1566.8 ± 39 | 2005.6 ± 50 | 2533.2 ± 63 | 3167.4 ± 79
